Structures are written as SMILES. Activity calls are given as the source filed them. The calls are words filed in the database; no cut-off is given here.

This assay deals with Mycobacterium tuberculosis. Nature of the assay: Antimycobacterial activity against multidrug resistant Mycobacterium tuberculosis H37Ra at 12.8 to 128 ug/mL. Format: functional, organism-based.
On to `CCCCCCCCO[C@H]1O[C@H](CO[C@H]2O[C@H](CO)[C@@H](O)[C@@H]2O)[C@@H](O)[C@@H]1F`, for which the outcome was Active.

For the compound `CCCCCCCCO[C@H]1O[C@H](CO[C@H]2O[C@H](CO)[C@@H](O)[C@@H]2O)C[C@@H]1O`, the outcome was Active. Next, `CCCCCCCCO[C@@H]1C[C@H](O)[C@@H](CO[C@H]2O[C@H](CO)[C@@H](O)[C@@H]2O)O1`: “Active”.

Values taken from ChEMBL document CHEMBL1140845, “Synthesis of deoxygenated alpha(1-->5)-linked arabinofuranose disaccharides as substrates and inhibitors of arabinosyltransferases of Mycobacterium tuberculosis” (Bioorg Med Chem, 2009).
